Like-named read-outs stand apart in the source and are kept apart here.
Key:
[1] = biological target: Recombinant human soluble BACE-1 catalytic domain (Homo sapiens (Human), UniProt P56817); experiment: BACE-1 Ki Assay (BACE-1 HTRF FRET Assay); assay type: biochemical
Method: Assay 1: BACE-1 Ki Assay (BACE-1 HTRF FRET Assay)
The compounds of the invention were assessed for their ability to inhibit BACE-1 using the following assay.
The following reagents were used in this assay. Na^+-Acetate pH 5.0; 1% Brij-35; Glycerol; Dimethyl Sulfoxide (DMSO); Recombinant human soluble BACE-1 catalytic domain (>95% pure); APP Swedish mutant peptide substrate (QSY7-APP^swe-Eu): QSY7-EISEVNLDAEFC-Europium-amide.
A homogeneous time-resolved FRET assay can be used to determine IC50 values for inhibitors of the soluble human BACE-1 catalytic domain. This assay monitors the increase of 620 nm fluorescence that resulted from BACE-1 cleavage of an APPswedish APP^swe mutant peptide FRET substrate (QSY7-EISEVNLDAEFC-Europium-amide). This substrate contains an N-terminal QSY7 moiety that serves as a quencher of the C-terminal Europium fluorophore (620 nm Em). In the absence of enzyme activity, 620 nm fluorescence is low in the assay and increased linearly over 3 hours in the presence of uninhibited BACE-1 enzyme. Inhibition of BACE-1 cleavage of the QSY7-APP^swe-Eu substrate by inhibitors is manifested as a suppression of 620 nm fluorescence.
Varying concentrations of inhibitors at 3× the final desired concentration in a volume of 10 ul are preincubated with purified human BACE-1 catalytic domain (3 nM in 10 μl) for 30 minutes at 30° C. in reaction buffer containing 20 mM Na-Acetate pH 5.0, 10% glycerol, 0.1% Brij-35 and 7.5% DSMO. Reactions are initiated by addition of 10 μl of 600 nM QSY7-APP^swe-Eu substrate (200 nM final) to give a final reaction volume of 30 μl in a 384 well Nunc HTRF plate. The reactions are incubated at 30° C. for 1.5 hours. The 620 nm fluorescence is then read on a Rubystar HTRF plate reader (BMG Labtechnologies) using a […] delay followed by a 400 millisecond acquisition time window. Inhibitor IC50 values are derived from non-linear regression analysis of concentration response curves. Ki values are then calculated from IC50 values using the Cheng-Prusoff equation using a previously determined […] of 8 μM for the QSY7-APP^swe-Eu substrate at BACE-1. The example compounds of the invention were measured in this assay.

[2] = biological target: purified human autoBACE-2 (Homo sapiens (Human), UniProt Q9Y5Z0); experiment: BACE-2 Assay (BACE-HTRF assay); assay type: biochemical; conditions: Table 1; Ki calculated from IC50 with Cheng-Prusoff equation; read-out: BACE2 Ki
purified human autoBACE-2, sequence (Q9Y5Z0 63-473): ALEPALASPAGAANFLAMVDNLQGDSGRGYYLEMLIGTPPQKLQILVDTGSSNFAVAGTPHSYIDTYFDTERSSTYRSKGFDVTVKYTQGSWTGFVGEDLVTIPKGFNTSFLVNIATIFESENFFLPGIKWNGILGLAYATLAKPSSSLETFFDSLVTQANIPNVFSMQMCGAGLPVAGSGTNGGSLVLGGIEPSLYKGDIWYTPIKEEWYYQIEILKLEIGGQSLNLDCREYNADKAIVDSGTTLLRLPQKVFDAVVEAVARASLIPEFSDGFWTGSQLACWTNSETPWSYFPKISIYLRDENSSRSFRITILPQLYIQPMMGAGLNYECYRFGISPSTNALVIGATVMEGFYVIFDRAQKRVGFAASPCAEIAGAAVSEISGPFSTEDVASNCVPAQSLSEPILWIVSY
Method: Inhibitor IC50s, at purified human autoBACE-2 are determined in a time-resolved endpoint proteolysis assay that measures hydrolysis of the QSY7-EISEVNLDAEFC-Eu-amide FRET peptide substrate (BACE-HTRF assay). BACE-mediated hydrolysis of this peptide results in an increase in relative fluorescence (RFU) at 620 nm after excitation with 320 nm light. Inhibitor compounds, prepared at 3× the desired final concentration in 1× BACE assay buffer (20 mM sodium acetate pH 5.0, 10% glycerol, 0.1% Brij-35) supplemented with 7.5% DMSO are pre-incubated with an equal volume of autoBACE-2 enzyme diluted in 1×BACE assay buffer (final enzyme concentration 1 nM) in black 384-well NUNC plates for 30 minutes at 30° C. The assay is initiated by addition of an equal volume of the QSY7-EISEVNLDAEFC-Eu-amide substrate (200 nM final concentration, Km=8 μM […] for autoBACE-2) prepared in 1×BACE assay buffer supplemented with 7.5% DMSO and incubated for 90 minutes at 30° C. DMSO is present at 5% final concentration in the assay. Following laser excitation of sample wells at 320 nm, the fluorescence signal at 620 nm is collected for 400 ms following a 50 μs delay on a RUBYstar HTRF plate reader (BMG Labtechnologies). Raw RFU data is normalized to maximum (1.0 nM BACE/DMSO) and minimum (no enzyme/DMSO) RFU values. IC50 values are determined by nonlinear regression analysis (sigmoidal dose response, variable slope) of percent inhibition data with minimum and maximum values set to 0 and 100 percent respectively. Similar IC50s are obtained when using raw RFU data. The Ki values are calculated from the IC50 using the Cheng-Prusoff equation.

[3] = test system: CSF levels of Aβ1-40 (Aβ40); experiment: Aβ Reduction In Vivo (rat CSF Aβ40); conditions: 3 h, 10 mg/kg oral gavage
Method: Assay 3: Aβ Reduction In Vivo
The in vivo efficacy and/or potency of BACE inhibitors (test compounds) can be evaluated using a variety of animal models, including mouse, rat, dog, and monkey, and these animals can be wild type, transgenic, or gene knockout animals.
Generally, animals are administered (by oral gavage, intravenous injection, or by other suitable route) a test compound in doses ranging from, for example, 0.1 mg/kg (mg of compound per kg of animal body weight) to 100 mg/kg formulated in vehicles, such as cyclodextrin, phosphate buffer, hydroxypropyl methylcellulose or other suitable vehicles. One to twenty-four hours following the administration of compound, animals are sacrificed, and tissues (for example, brain, cerebrospinal fluid (CSF), and/or plasma) are collected for analysis of Aβ levels and/or test compound concentrations (Dovey et al., 2001, Journal of Neurochemistry, 76, 173-181). Tissue samples are processed appropriately and then analyzed for the presence of Aβ by specific sandwich ELISA assays based on electrochemiluminescence (ECL) technology.
For example, in the following assay for which data are reported below, male CD IGS rats (body weight approximately 120 g, Charles River Laboratories, Kingston, N.Y.) were used to asses lowering of CSF levels of Aβ1-40 (Aβ40) in the presence of compounds of the invention. At time 0, animals were administered by oral gavage a test compound at a dose of 10 mg/kg in 20% hydroxypropyl-β-cyclodextrin (dosing volume 5 mL/kg). A separate group of animals received 20% hydroxypropyl-β-cyclodextrin alone to serve as the vehicle control group. Three hours after administration, the rats were euthanized with excess CO2. Immediately following euthanasia, CSF was collected from the cisterna magna and quickly frozen on dry ice. Samples were stored at −80° C. until quantification of Aβ40 levels.
The measurement of endogenous rat Aβ40 in CSF relied on the 585 antibody (Ab585, BioSource, NONO585), which specifically recognizes the N-terminal sequence of rodent Aβ40, and on the monoclonal antibody, G2-10, which specifically recognizes the free C-terminus of Aβ40. Ab585 was labeled with biotin (b-Ab585) by first dialyzing the antibody sample extensively versus PBS (pH 7.8) to remove impurities, followed by dilution to between 1 and 2 mg/mL protein concentration. EZ-Link Sulfo-NHS-LC-Biotin (Pierce) was dissolved in PBS (pH 7.8) at a concentration of 1 mg/mL immediately prior to use. Ab585 was labeled with EZ-Link Sulfo-NHS-LC-biotin using a 10:1 biotin:antibody ratio by incubation at room temperature for 1 hour. The labeling reaction was quenched by addition of 1.0 M glycine to a final concentration of 0.1 M followed by 10 minute incubation at room temperature. Glycine was removed by extensive dialysis versus PBS.
For rat CSF Aβ40 determinations, a calibration curve of various concentrations of synthetic rodent Aβ40 was assayed in parallel with rat CSF samples in duplicate using an avidin-coated 96-well MSD plate (Mesoscale Diagnostics). Either 50 μL of rodent Aβ40 standards diluted in PBS (pH 7.4) supplemented with 1% BSA and 1% Tween-20 (standard diluent buffer) or 40 μL of standard diluent buffer plus 10 μL rat CSF were added to each 96 well avidin-coated plate. To each well was added 50 μL of 0.1 M HEPES (pH 7.5), 2% BSA, 2% Tween-20, 0.3 M NaCl (2× Aβ40 buffer) supplemented with the b-Ab585 capture and ruthenylated-G2-10 detection antibodies diluted to 1 μg/mL and 0.5 μg/mL, respectively. Plates were shaken for 1 min on a microplate shaker, covered to protect from light and incubated overnight (˜16 h) at 4° C. For detection, plates were first washed twice with 100 μL of 1×CSF Aβ40 buffer followed by addition of 160 μL of 1×MSD read buffer-T (Mesoscale Diagnostics) diluted in 1×CSF Aβ40 buffer. Plates were read on a MSD Sector Imager 2400 model (Mesoscale Diagnosotics). […]

[4] = Table 1, Ki calculated from IC50 with Cheng-Prusoff equation, read-out: BACE1 Ki
[5] = Table 2, male CD IGS rats, CSF three hours after administration, percent change vs vehicle cohort

Recombinant human soluble BACE-1 catalytic domain, sequence (P56817 75-416): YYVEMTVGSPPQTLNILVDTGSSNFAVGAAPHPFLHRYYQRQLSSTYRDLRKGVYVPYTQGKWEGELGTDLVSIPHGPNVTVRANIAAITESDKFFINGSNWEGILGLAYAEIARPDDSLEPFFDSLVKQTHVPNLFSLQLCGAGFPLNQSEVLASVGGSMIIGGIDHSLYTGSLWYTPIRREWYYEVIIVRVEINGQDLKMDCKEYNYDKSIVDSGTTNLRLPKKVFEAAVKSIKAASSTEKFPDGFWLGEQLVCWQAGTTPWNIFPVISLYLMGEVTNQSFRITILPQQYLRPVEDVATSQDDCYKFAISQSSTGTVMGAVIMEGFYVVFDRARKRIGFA

SMILES	Ki [1, 4] [nM]	Ki ([1]; Table 2, read-out: BACE1 Ki) [nM]	Ki [2] [nM]	change in vivo at 10 mg/kg [3, 5] [%]	Ki ([1]; Table 3, comparator compounds of WO2011044181, read-out: BACE-1 Ki Nm) [nM]	change in vivo at 10 mg/kg ([3]; Table 3, comparator compounds of WO2011044181, rats, CSF at three hours, percent change vs vehicle) [%]
COc1cnc2c(Nc3ccc(F)c([C@]4(C)CS(=O)(=O)N(C)C(=N)N4)c3)nccc2n1 [Example 9, N-{4-fluoro-3-[(5R)-3-imino-2,5-dimethyl-1,1-dioxido-1,2,4-thiadiazinan-5-yl]phenyl}-2-methoxypyrido[3,4-b]pyrazin-5-amine]	2.6	2.6	3.5	-68	–	–
CN1C(=N)N[C@](C)(c2c(F)ccc(Nc3nccc4cc(C#N)cnc34)c2F)CS1(=O)=O [Example 11, 8-({2,4-difluoro-3-[(5R)-3-imino-2,5-dimethyl-1,1-dioxido-1,2,4-thiadiazinan-5-yl]phenyl}amino)-1,7-naphthyridine-3-carbonitrile]	2.1	2.1	1.1	-50	–	–
CN1C(=N)N[C@](C)(c2cc(Nc3ncnc4cc(C#N)cnc34)ccc2F)CS1(=O)=O [Example 7, 4-({4-fluoro-3-[(5R)-3-imino-2,5-dimethyl-1,1-dioxido-1,2,4-thiadiazinan-5-yl]phenyl}amino)pyrido[3,2-d]pyrimidine-7-carbonitrile]	3.2	3.2	3	-21	–	–
COc1cccnc1Nc1ccnc([C@]2(C)CS(=O)(=O)N(C)C(=N)N2)c1 [165 (Table XXI), reference compound]	–	–	–	–	48	-11
COc1cnc2c(Nc3ccc(F)c([C@]4(C)CS(=O)(=O)N(C)C(=N)N4)c3)ncnc2c1 [Example 14, N-{4-fluoro-3-[(5R)-3-imino-2,5-dimethyl-1,1-dioxido-1,2,4-thiadiazinan-5-yl]phenyl}-7-methoxypyrido[3,2-d]pyrimidin-4-amine]	4.3	4.3	4.4	-55	–	–
COc1cnc2c(Nc3ccc(F)c([C@]4(C)CS(=O)(=O)N(C)C(=N)N4)c3)nccc2c1 [Example 4, N-{4-fluoro-3-[(5R)-3-imino-2,5-dimethyl-1,1-dioxido-1,2,4-thiadiazinan-5-yl]phenyl}-3-methoxy-1,7-naphthyridin-8-amine]	11.7	12	5.8	-45	–	–
CN1C(=N)N[C@](C)(c2cc(Nc3nccc4nc(C(F)F)cnc34)ccc2F)CS1(=O)=O [Example 12, 2-(difluoromethyl)-N-{4-fluoro-3-[(5R)-3-imino-2,5-dimethyl-1,1-dioxido-1,2,4-thiadiazinan-5-yl]phenyl}pyrido[3,4-b]pyrazin-5-amine]	5.2	5.2	1.8	-44	–	–
CN1C(=N)N[C@](C)(c2cc(Nc3nccc4cc(F)cnc34)ccc2F)CS1(=O)=O [Example 8, 3-fluoro-N-{4-fluoro-3-[(5R)-3-imino-2,5-dimethyl-1,1-dioxido-1,2,4-thiadiazinan-5-yl]phenyl}-1,7-naphthyridin-8-amine]	2.1	2.1	0.24	-21	–	–
CN1C(=N)N[C@](C)(c2cc(Nc3nccc4cc(C#N)cnc34)ccc2F)CS1(=O)=O [Example 6, 8-({4-fluoro-3-[(5R)-3-imino-2,5-dimethyl-1,1-dioxido-1,2,4-thiadiazinan-5-yl]phenyl}amino)-1,7-naphthyridine-3-carbonitrile]	1.31	1.3	0.46	-50	–	–

Source: patent US10071998B2, “Iminothiadiazine dioxides bearing an amine-linked substituent as BACE inhibitors, compositions, and their use” (Merck Sharp & Dohme Corp., priority 2015, dated 2018)
